Measured values reported in patent US9302999B2, “Substituted triazoles as herbicides” (E. I. DU PONT DE NEMOURS AND COMPANY, priority 2012, dated 2016).

Tests used:
[1] = test system: pigweed (Amaranthus retroflexus); experiment: Test A pre-/postemergence: pigweed; format: in vivo
How it was run: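 Whole-plant greenhouse assay in loam/sand. Preemergence directed soil spray plus simultaneous postemergence spray (one- to two-leaf stage, 2–10 cm). Rated visually ~10 days later, 0 = no effect, 100 = complete control.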

[2] = test system: blackgrass (Alopecurus myosuroides); experiment: Test C pre-/postemergence: blackgrass; format: in vivo
How it was run: (§1)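 Visual injury scored 0–100 (100 = complete control) against untreated controls after 13–15 greenhouse days. Surfactant-containing solvent formulations applied either to soil after sowing (loam/sand) or over 1- to 4-leaf plants, 2–18 cm tall.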

rice (Oryza sativa) = experiment: Test B flooded paddy: rice; format: in vivo; details: Flood; 125 g ai/ha; applied to paddy water at 2-leaf stage; visually evaluated after 13 to 15 days
How it was run: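 Two-leaf-stage plants, pots flooded (3 cm above soil) and treated through the water, which stayed at that depth. After 13–15 days in greenhouse conditions, visual assessment versus controls: 0 is no effect, 100 complete control, dash means no result.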

Barnyardgrass = experiment: Test C preemergence: barnyardgrass; format: in vivo, Echinochloa crus-galli
Excerpt: Seeds of plant species selected from blackgrass (Alopecurus myosuroides), bromegrass, downy (downy bromegrass, Bromus tectorum), foxtail, green (green foxtail, Setaria viridis), ryegrass, Italian (Italian ryegrass, Lolium multiflorum), winter wheat (Triticum aestivum), wild oat (Avena fatua), galium (catchweed bedstraw, Galium aparine), bermudagrass (Cynodon dactylon), surinam grass (Brachiaria decumbens), cocklebur (common cocklebur, Xanthium strumarium), corn (Zea mays), large crabgrass (Digitaria sanguinalis), woolly cupgrass (Eriochloa villosa), foxtail, giant (giant foxtail, Setaria faberii), goosegrass (Eleusine indica), johnsongrass (Sorghum halepense), kochia (Kochia scoparia), lambsquarters (Chenopodium album), morningglory (Ipomoea coccinea), nightshade (eastern black nightshade, Solanum ptycanthum), nutsedge, yellow (yellow nutsedge, Cyperus esculentus), pigweed (Amaranthus retroflexus), ragweed (common ragweed, Ambrosia elation), soybean (Glycine max), common (oilseed) sunflower (Helianthus annuus), Russian thistle (Salsola kali) and velvetleaf (Abutilon theophrasti) were planted into a blend of loam soil and sand and treated preemergence with test chemicals formulated in a non-phytotoxic solvent mixture which included a surfactant.
Treated plants and controls were maintained in a greenhouse for 13 to 15 days, after which time all species were compared to controls and visually evaluated. Plant response ratings, summarized in Table C, are based on a scale of 0 to 100 where 0 is no effect and 100 is complete control. A dash (-) response means no test result.

[3] = test system: morningglory (Ipomoea coccinea); experiment: Test C pre-/postemergence: morningglory; format: in vivo
How it was run: as §1

[4] = test system: ragweed (common ragweed, Ambrosia elation); experiment: Test C pre-/postemergence: ragweed; format: in vivo
How it was run: as §1

[5] = test system: galium (catchweed bedstraw, Galium aparine); experiment: Test C pre-/postemergence: galium; format: in vivo
How it was run: as §1

[6] = test system: pigweed (Amaranthus retroflexus); experiment: Test C pre-/postemergence: pigweed; format: in vivo
How it was run: as §1

[7] = test system: nutsedge, yellow (yellow nutsedge, Cyperus esculentus); experiment: Test C pre-/postemergence: nutsedge, yellow; format: in vivo
How it was run: as §1

[8] = test system: winter wheat (Triticum aestivum); experiment: Test C pre-/postemergence: winter wheat; format: in vivo
How it was run: as §1

wild oat (Avena fatua) = experiment: Test C pre-/postemergence: wild oat; format: in vivo; details: Postemergence
How it was run: as §1

[9] = Postemergence, 31 g ai/ha, scale 0 to 100 (0 no effect, 100 complete control)
[10] = Postemergence, 62 g ai/ha, scale 0 to 100 (0 no effect, 100 complete control)
[11] = Postemergence, 125 g ai/ha, scale 0 to 100, 0 no effect, 100 complete control
[12] = Preemergence, 31 g ai/ha, scale 0 (no effect) to 100 (complete control)
[13] = Preemergence, 62 g ai/ha, scale of 0 to 100, 0 is no effect, 100 is complete control
[14] = Preemergence, 125 g ai/ha, scale 0 to 100, 0 no effect, 100 complete control
[15] = Preemergence, 250 g ai/ha, scale 0 to 100, 0 no effect, 100 complete control
[16] = 125 g ai/ha, scale 0 to 100, 0 no effect, 100 complete control
[17] = Postemergence, 250 g ai/ha, scale 0 to 100 (0 no effect, 100 complete control)

CCc1nn(-c2ccc(C(F)(F)F)c(F)c2)nc1Oc1ccnc(C(F)(F)F)c1 [Compound 183]
Plant response rating, Pigweed ([1]; Postemergence, 125 g ai/ha, 0 to 100 scale, 0 is no effect, 100 is complete control): 100 | Pigweed plant response rating ([1]; Postemergence, 500 g ai/ha, 0 to 100 scale, 0 is no effect, 100 is complete control): 100 | Plant response rating, Pigweed ([1]; Preemergence, 125 g ai/ha, 0 to 100 scale where 0 is no effect and 100 is complete control): 100 | Plant response rating, Pigweed ([1]; Preemergence, 500 g ai/ha, 0 to 100 scale (0 no effect, 100 complete control)): 100 | Plant response rating, Blackgrass [2, 9]: 10 | Plant response rating, Blackgrass [2, 10]: 20 | Plant response rating, Blackgrass [2, 11]: 60 | Plant response rating, Blackgrass ([2]; Postemergence, 250 g ai/ha, scale 0 to 100): 60 | Plant response rating, Blackgrass [2, 12]: 80 | Plant response rating, Blackgrass [2, 13]: 95 | Plant response rating, Blackgrass [2, 14]: 95 | Plant response rating, Blackgrass [2, 15]: 100 | Plant response rating, Rice (0 to 100 scale, 0 is no effect, 100 is complete control) (rice (Oryza sativa)): 45 | Plant response rating, Barnyardgrass (Barnyardgrass; 31 g ai/ha, scale 0 (no effect) to 100 (complete control)): 40 | Plant response rating, Barnyardgrass (Barnyardgrass; 62 g ai/ha, scale of 0 to 100, 0 is no effect, 100 is complete control): 95 | Plant response rating, Barnyardgrass (Barnyardgrass; [16]): 100 | Plant response rating, Morningglory [3, 9]: 98 | Plant response rating, Morningglory [3, 10]: 98 | Plant response rating, Morningglory [3, 11]: 100 | Plant response rating, Morningglory [3, 17]: 100 | Plant response rating, Morningglory [3, 12]: 30 | Plant response rating, Morningglory [3, 13]: 45 | Plant response rating, Morningglory [3, 14]: 70 | Plant response rating, Morningglory [3, 15]: 95 | Plant response rating, Ragweed [4, 9]: 65 | Plant response rating, Ragweed [4, 10]: 80 | Plant response rating, Ragweed [4, 11]: 90 | Plant response rating, Ragweed [4, 17]: 95 | Plant response rating, Ragweed [4, 12]: 50 | Plant response rating, Ragweed [4, 13]: 50 | Plant response rating, Ragweed [4, 14]: 95 | Plant response rating, Ragweed [4, 15]: 95 | Plant response rating, Galium [5, 9]: 70 | Plant response rating, Galium [5, 10]: 70 | Plant response rating, Galium [5, 11]: 90 | Plant response rating, Galium [5, 17]: 90 | Plant response rating, Galium [5, 12]: 60 | Plant response rating, Galium [5, 13]: 100 | Plant response rating, Galium [5, 14]: 100 | Plant response rating, Galium [5, 15]: 100 | Plant response rating, Pigweed [6, 9]: 100 | Plant response rating, Pigweed [6, 11]: 100 | Plant response rating, Pigweed [6, 17]: 100 | Plant response rating, Pigweed [6, 12]: 100 | Plant response rating, Pigweed [6, 13]: 100 | Plant response rating, Pigweed [6, 14]: 100 | Plant response rating, Pigweed [6, 15]: 100 | Plant response rating, Nutsedge, Yellow [7, 9]: 10 | Plant response rating, Nutsedge, Yellow [7, 10]: 10 | Plant response rating, Nutsedge, Yellow [7, 11]: 10 | Plant response rating, Nutsedge, Yellow [7, 17]: 10 | Plant response rating, Nutsedge, Yellow [7, 12]: 0 | Plant response rating, Nutsedge, Yellow [7, 13]: 0 | Plant response rating, Nutsedge, Yellow [7, 14]: 5 | Plant response rating, Nutsedge, Yellow [7, 15]: 5 | Plant response rating, Wheat [8, 9]: 10 | Plant response rating, Wheat [8, 10]: 20 | Plant response rating, Wheat [8, 11]: 20 | Plant response rating, Wheat [8, 17]: 30 | Plant response rating, Wheat [8, 12]: 5 | Plant response rating, Wheat [8, 13]: 10 | Plant response rating, Wheat [8, 14]: 35 | Plant response rating, Wheat [8, 15]: 40 | Plant response rating, Oat, Wild (wild oat (Avena fatua); 31 g ai/ha, scale 0 to 100 (0 no effect, 100 complete control)): 30 | Plant response rating, Oat, Wild (wild oat (Avena fatua); 62 g ai/ha, scale 0 to 100 (0 no effect, 100 complete control)): 40 | Plant response rating, Oat, Wild (wild oat (Avena fatua); [16]): 55 | Plant response rating, Oat, Wild (wild oat (Avena fatua); 250 g ai/ha, scale 0 to 100 (0 no effect, 100 complete control)): 85
